Measurements taken from patent US4166114A, “Aminoglycoside antibiotic derivatives and method of use” (Shionogi & Co., Ltd., priority 1976, dated 1979).
≈ marks a conversion by molar mass, not a printed value. Read-outs that look alike come from different tables or passages of the source.

Key:
Proteus mirabilis TB-617 = assay: MIC (minimum inhibitory concentration); assay type: cell-based
[1] = tested on: Klebsiella pneumoniae Kl-38; assay: MIC (minimum inhibitory concentration)
[2] = tested on: Escherichia coli W-677/JR 214; assay: MIC (minimum inhibitory concentration); settings: tobramycin resistant organism
[3] = tested on: Pseudomonas aeruginosa TM-121; assay: MIC (minimum inhibitory concentration)
[4] = tested on: Escherichia coli W-677/JR 762; assay: MIC (minimum inhibitory concentration)
[5] = tested on: Pseudomonas aeruginosa PP-6; assay: MIC (minimum inhibitory concentration); settings: tobramycin resistant organism
[6] = tested on: Staphylococcus aureus ATCC 25923; assay: MIC (minimum inhibitory concentration)
[7] = tested on: Serratia marcescens MA-26; assay: MIC (minimum inhibitory concentration); settings: MA26
[8] = tested on: Citrobacter freundii Ct-31; assay: MIC (minimum inhibitory concentration); settings: CT31
[9] = tested on: Enterobacter cloacae CI-83; assay: MIC (minimum inhibitory concentration); settings: CI83
Escherichia coli TB-705 = assay: MIC (minimum inhibitory concentration); assay type: cell-based; settings: TB705, Table 3
Proteus rettgeri Ret 33 = assay: MIC (minimum inhibitory concentration); settings: Providencia rettgeri, RET33
[10] = tested on: Staphylococcus aureus 80285; assay: MIC (minimum inhibitory concentration)
[11] = tested on: kanamycin resistant bacteria; settings: literature (Kawaguchi et al.; Fujisawa et al.); cited from earlier work
[12] = literature (Kawaguchi et al.; Fujisawa et al.); cited from earlier work
[13] = Proteus mirabilis, TB617, Table 2, read-out: MIC
[14] = Klebsiella pneumoniae, KL38, Table 2
[15] = Escherichia coli, W677/JR214, Table 2
[16] = Pseudomonas aeruginosa, PP6, Table 2
[17] = Staphylococcus aureus, ATCC25923
[18] = Proteus mirabilis, TB617, Table 3, read-out: MIC
[19] = Klebsiella pneumoniae, KL38, Table 3
[20] = Escherichia coli, W677/JR214, Table 3
[21] = Pseudomonas aeruginosa, PP6, Table 3
[22] = Table 2, tobramycin resistant organism

| Molecule | MIC (Proteus mirabilis TB-617; [13]) [µg/mL] | MIC [1, 14] [µg/mL] | MIC [2, 15] [µg/mL] | MIC ([3]; Pseudomonas aeruginosa, TM121) [µg/mL] | MIC ([4]; Escherichia coli, W677/JR762) [µg/mL] | MIC [5, 16] [µg/mL] | MIC [6, 17] [µg/mL] | MIC (Proteus mirabilis TB-617; [18]) [µg/mL] | MIC [1, 19] [µg/mL] | MIC [7] [µg/mL] | MIC [2, 20] [µg/mL] | MIC [8] [µg/mL] | MIC [9] [µg/mL] | MIC (Escherichia coli TB-705) [µg/mL] | MIC (Proteus rettgeri Ret 33) [µg/mL] | MIC [5, 21] [µg/mL] | MIC [10] [µg/mL] | also measured |
| --- | --- | --- | --- | --- | --- | --- | --- | --- | --- | --- | --- | --- | --- | --- | --- | --- | --- | --- |
| CN[C@@H]1[C@@H](O)[C@@H](O[C@@H]2[C@@H](O)[C@H](O[C@H]3OC(CN)=CC[C@H]3N)[C@@H](N)C[C@H]2N)OC[C@]1(C)O [SSM, sisomicin] | 12.5 (≈ 27.9 µM) | 0.39 (≈ 0.871 µM) | 25 (≈ 55.9 µM) | 200 (≈ 447 µM) | 50 (≈ 112 µM) | 200 (≈ 447 µM) | 1.56 (≈ 3.49 µM) | – | – | – | – | – | – | – | – | – | – | – |
| NC[C@H]1O[C@H](O[C@H]2[C@H](O)[C@@H](O[C@H]3O[C@H](CO)[C@@H](O)[C@H](N)[C@H]3O)[C@H](N)C[C@@H]2N)[C@H](O)[C@@H](O)[C@@H]1O [KM-A, kanamycin A] | > 200 | > 200 | > 200 | > 200 | > 200 | 200 (≈ 413 µM) | 6.25 (≈ 12.9 µM) | > 100 | > 100 | > 100 | > 100 | > 100 | > 100 | > 100 | > 100 | > 100 | > 100 | – |
| NCC[C@H](O)C(=O)N[C@@H]1C[C@H](N)[C@@H](O[C@H]2O[C@H](CN)[C@@H](O)[C@H](O)[C@H]2O)[C@H](O)[C@H]1O[C@H]1O[C@H](CO)[C@@H](O)[C@H](N)[C@H]1O [Amikacin, amikacin] | – | – | – | – | – | – | – | – | – | – | – | – | – | – | – | – | – | effectiveness against kanamycin resistant bacteria [11]: effective against kanamycin resistant bacteria; toxicity compared with kanamycin [12]: approximately the same degree of the toxicity as kanamycin |
| NC[C@H]1O[C@H](O[C@H]2[C@H](O)[C@@H](O[C@H]3O[C@H](CO)[C@@H](O)[C@H](N)[C@H]3O)[C@H](NC(=O)C3(O)CCNCC3)C[C@@H]2N)[C@H](N)C[C@@H]1O [TOB der.] | 6.25 (≈ 10.5 µM) | 1.56 (≈ 2.62 µM) | 1.56 (≈ 2.62 µM) | 12.5 (≈ 21 µM) | 6.25 (≈ 10.5 µM) | 6.25 (≈ 10.5 µM) | 1.56 (≈ 2.62 µM) | 1.56 (≈ 2.62 µM) | 0.78 (≈ 1.31 µM) | 12.5 (≈ 21 µM) | 0.78 (≈ 1.31 µM) | 0.78 (≈ 1.31 µM) | 0.78 (≈ 1.31 µM) | 3.13 (≈ 5.26 µM) | 0.78 (≈ 1.31 µM) | 3.13 (≈ 5.26 µM) | 0.39 (≈ 0.656 µM) | – |
| gentamicin [GM] | – | – | – | – | – | – | – | – | – | – | – | – | – | – | – | – | – | MIC (Proteus mirabilis TB-617; Table 2): 25 µg/mL; MIC ([1]; Table 2): 0.78 µg/mL; MIC ([2]; Table 2): 100 µg/mL; MIC [3, 22]: 100 µg/mL; MIC [4, 22]: 100 µg/mL; MIC ([5]; Table 2): > 200 µg/mL; MIC ([6]; Table 2): 0.78 µg/mL |
| NC[C@H]1O[C@H](O[C@H]2[C@H](O)[C@@H](O[C@H]3O[C@H](CO)[C@@H](O)[C@H](N)[C@H]3O)[C@H](NC(=O)C3(O)CCNC3)C[C@@H]2N)[C@H](O)[C@@H](O)[C@@H]1O (some centres unmarked) [KM-A der., 1-N-(3-hydroxypyrrolidine-3-carbonyl)-kanamycin A] | – | – | – | – | – | – | – | 6.25 (≈ 10.5 µM) | 3.13 (≈ 5.24 µM) | 6.25 (≈ 10.5 µM) | 6.25 (≈ 10.5 µM) | 3.13 (≈ 5.24 µM) | 3.13 (≈ 5.24 µM) | 25 (≈ 41.8 µM) | 1.56 (≈ 2.61 µM) | 12.5 (≈ 20.9 µM) | 12.5 (≈ 20.9 µM) | – |
| NC[C@H]1O[C@H](O[C@H]2[C@H](O)[C@@H](O[C@H]3O[C@H](CO)[C@@H](O)[C@H](N)[C@H]3O)[C@H](N)C[C@@H]2N)[C@H](N)C[C@@H]1O [TOB, tobramycin] | 12.5 (≈ 26.7 µM) | 3.13 (≈ 6.69 µM) | 50 (≈ 107 µM) | 100 (≈ 214 µM) | 100 (≈ 214 µM) | 50 (≈ 107 µM) | 1.56 (≈ 3.34 µM) | 12.5 (≈ 26.7 µM) | 1.56 (≈ 3.34 µM) | 50 (≈ 107 µM) | 100 (≈ 214 µM) | 3.13 (≈ 6.69 µM) | 0.78 (≈ 1.67 µM) | 6.25 (≈ 13.4 µM) | 1.56 (≈ 3.34 µM) | > 100 | 0.78 (≈ 1.67 µM) | – |
